Earlier results, collected in patent US20160120797A1, “ANTI-ACNE COMPOSITION AND METHODS OF USE THEREOF” (priority 2014, published 2016).

SMILES: O=C(O)Cc1ccccc1Nc1c(Cl)cccc1Cl [Diclofenac sodium, 2-(2-(2,6-dichlorophenylamino)phenyl)acetic acid]
- anti-bacterial activity (E. Coli): anti-bacterial activity
- anti-bacterial activity (L. monocytogenes): anti-bacterial activity
